{"source": "patent US9637472B2", "about": "“Substituted 6,5-fused bicyclic heteroaryl compounds” (Epizyme, Inc., priority 2011, dated 2017)", "data": [{"target": "EZH2 (Homo sapiens (Human), UniProt Q15910)", "sequence (Q15910 other isoform, or with tags, fused parts or gaps)": "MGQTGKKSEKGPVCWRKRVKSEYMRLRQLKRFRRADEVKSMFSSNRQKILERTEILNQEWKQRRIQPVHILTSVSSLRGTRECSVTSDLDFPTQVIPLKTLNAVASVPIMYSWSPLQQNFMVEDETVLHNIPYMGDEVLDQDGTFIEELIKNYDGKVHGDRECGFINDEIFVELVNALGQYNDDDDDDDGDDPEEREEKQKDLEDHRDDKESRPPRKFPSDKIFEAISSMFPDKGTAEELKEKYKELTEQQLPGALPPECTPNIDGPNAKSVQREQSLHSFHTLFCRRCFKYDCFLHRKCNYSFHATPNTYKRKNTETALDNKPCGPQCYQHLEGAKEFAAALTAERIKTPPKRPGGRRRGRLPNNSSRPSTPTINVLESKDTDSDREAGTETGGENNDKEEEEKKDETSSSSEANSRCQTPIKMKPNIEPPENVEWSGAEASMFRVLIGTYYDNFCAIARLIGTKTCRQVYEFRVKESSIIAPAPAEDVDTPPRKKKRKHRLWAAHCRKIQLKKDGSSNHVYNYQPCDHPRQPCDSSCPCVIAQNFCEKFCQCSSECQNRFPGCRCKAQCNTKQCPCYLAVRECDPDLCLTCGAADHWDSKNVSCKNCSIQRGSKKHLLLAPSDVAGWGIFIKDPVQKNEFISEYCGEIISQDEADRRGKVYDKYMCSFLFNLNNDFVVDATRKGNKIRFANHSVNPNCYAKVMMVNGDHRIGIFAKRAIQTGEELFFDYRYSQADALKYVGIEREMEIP", "sequence (O75530 whole entry partner)": "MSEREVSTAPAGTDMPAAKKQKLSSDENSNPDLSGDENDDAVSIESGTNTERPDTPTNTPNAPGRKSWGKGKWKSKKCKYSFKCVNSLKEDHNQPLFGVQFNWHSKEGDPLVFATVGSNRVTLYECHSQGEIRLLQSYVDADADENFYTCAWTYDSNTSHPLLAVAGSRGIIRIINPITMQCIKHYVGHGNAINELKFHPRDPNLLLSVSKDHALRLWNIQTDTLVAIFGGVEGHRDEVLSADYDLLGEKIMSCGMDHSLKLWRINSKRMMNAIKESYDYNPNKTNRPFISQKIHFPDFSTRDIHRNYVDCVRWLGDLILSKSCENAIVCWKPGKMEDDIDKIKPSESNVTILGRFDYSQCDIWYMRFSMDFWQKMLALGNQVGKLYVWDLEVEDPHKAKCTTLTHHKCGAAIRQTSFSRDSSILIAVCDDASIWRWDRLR", "sequence (Q15022 whole entry partner)": "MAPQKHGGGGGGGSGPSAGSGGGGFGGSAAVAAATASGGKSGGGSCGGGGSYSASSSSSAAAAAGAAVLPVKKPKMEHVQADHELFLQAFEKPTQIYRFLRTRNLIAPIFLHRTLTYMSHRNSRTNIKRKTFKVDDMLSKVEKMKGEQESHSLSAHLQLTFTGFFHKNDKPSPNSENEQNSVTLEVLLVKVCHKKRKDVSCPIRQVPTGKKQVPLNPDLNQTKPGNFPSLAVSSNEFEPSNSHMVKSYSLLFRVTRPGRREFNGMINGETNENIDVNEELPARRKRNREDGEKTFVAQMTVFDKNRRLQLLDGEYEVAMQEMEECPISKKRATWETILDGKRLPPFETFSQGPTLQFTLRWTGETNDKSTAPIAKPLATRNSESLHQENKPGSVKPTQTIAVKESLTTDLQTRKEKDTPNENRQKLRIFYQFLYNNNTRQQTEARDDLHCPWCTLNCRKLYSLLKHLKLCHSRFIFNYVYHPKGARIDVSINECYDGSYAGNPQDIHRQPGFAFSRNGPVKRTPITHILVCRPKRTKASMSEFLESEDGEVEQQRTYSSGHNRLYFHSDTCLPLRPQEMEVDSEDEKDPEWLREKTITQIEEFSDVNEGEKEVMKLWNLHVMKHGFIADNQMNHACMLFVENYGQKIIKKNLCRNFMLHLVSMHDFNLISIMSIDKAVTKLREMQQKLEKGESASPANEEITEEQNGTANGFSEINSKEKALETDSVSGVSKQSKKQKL", "sequence (Q09028 whole entry partner)": "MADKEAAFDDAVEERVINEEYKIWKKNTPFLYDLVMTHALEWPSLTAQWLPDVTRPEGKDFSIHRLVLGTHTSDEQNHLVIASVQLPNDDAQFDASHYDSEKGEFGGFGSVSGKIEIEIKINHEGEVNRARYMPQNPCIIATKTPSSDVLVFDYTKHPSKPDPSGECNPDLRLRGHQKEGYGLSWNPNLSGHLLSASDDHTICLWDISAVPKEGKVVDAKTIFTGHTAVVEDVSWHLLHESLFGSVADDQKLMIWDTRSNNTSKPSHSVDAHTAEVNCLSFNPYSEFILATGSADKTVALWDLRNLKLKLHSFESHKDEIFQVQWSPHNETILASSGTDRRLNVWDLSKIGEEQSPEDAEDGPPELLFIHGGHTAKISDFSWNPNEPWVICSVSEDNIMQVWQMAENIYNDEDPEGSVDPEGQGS", "experiment": "PRC2 enzyme assay on peptide substrates", "format": "biochemical", "conditions": "PRC2 enzyme assays on peptide substrates; 4 nM enzyme, 30 min preincubation at 25° C.; read-out: EZH2 IC50", "source_text": "General Materials. S-adenosylmethionine (SAM), S-adenosylhomocyteine (SAH), bicine, KCl, Tween20, dimethylsulfoxide (DMSO) and bovine skin gelatin (BSG) were purchased from Sigma-Aldrich at the highest level of purity possible. Dithiothreitol (DTT) was purchased from EMD. ^3H-SAM was purchased from American Radiolabeled Chemicals with a specific activity of 80 Ci/mmol. 384-well streptavidin Flashplates were purchased from PerkinElmer.\nSubstrates. […] The sequences are listed below.\nRecombinant PRC2 Enzymes. Human PRC2 enzymes were purified as 4-component enzyme complexes co-expressed in Spodoptera frugiperda (sf9) cells using a baculovirus expression system. The subunits expressed were wild-type EZH2 (NM_004456) or EZH2 Y641F, N, H, S or C mutants generated from the wild-type EZH2 construct, EED (NM_003797), Suz12 (NM_015355) and RbAp48 (NM_005610). The EED subunit contained an N-terminal FLAG tag that was used to purify the entire 4-component complex from sf9 cell lysates.\nGeneral Procedure for PRC2 Enzyme Assays on Peptide Substrates. The assays were all performed in a buffer consisting of 20 mM bicine (pH=7.6), 0.5 mM DTT, 0.005% BSG and 0.002% Tween20, prepared on the day of use. […] DMSO (1 μL) was added to columns 11, 12, 23, 24, rows A-H for the maximum signal control, and SAH, a known product and inhibitor of PRC2 (1 μL) was added to columns 11, 12, 23, 24, rows I-P for the minimum signal control. A cocktail (40 μL) containing the wild-type PRC2 enzyme and H3K27me0 peptide or any of the Y641 mutant enzymes and H3K27me2 peptide was added by Multidrop Combi (Thermo). The compounds were allowed to incubate with PRC2 for 30 min at 25° C., then a cocktail (10 μL) containing a mixture of non-radioactive and ^3H-SAM was added to initiate the reaction (final volume=51 μL). […] The assays were stopped by the addition of non-radioactive SAM (10 μL) to a final concentration of 600 μM, which dilutes the ^3H-SAM to a level where its incorporation into the peptide substrate is no longer detectable. 50 μL of the reaction in the 384-well polypropylene plate was then transferred to a 384-well Flashplate and the biotinylated peptides were allowed to bind to the streptavidin surface for at least 1 h before being washed three times with 0.1% Tween20 in a Biotek ELx405 plate washer. The plates were then read in a PerkinElmer TopCount platereader to measure the quantity of ^3H-labeled peptide bound to the Flashplate surface, measured as disintegrations per minute (dpm) or alternatively, referred to as counts per minute (cpm).\nWhere dpm=disintegrations per minute, cmpd=signal in assay well, and min and max are the respective minimum and maximum signal controls.\nWhere top and bottom are the normally allowed to float, but may be fixed at 100 or 0 respectively in a 3-parameter fit. The Hill Coefficient normally allowed to float but may also be fixed at 1 in a 3-parameter fit. Y is the % inhibition and X is the compound concentration.", "units": {"IC50": "nM"}, "values": [{"molecule": "1-cyclopentyl-N-((4,6-dimethyl-2-oxo-1,2-dihydropyridin-3-yl)methyl)-6-(2,2,6,6-tetramethylpiperidin-4-yl)-1H-pyrazolo[3,4-b]pyridine-4-carboxamide [Compound B-4]", "IC50": "< 300"}, {"molecule": "1-cyclopentyl-N-((4,6-dimethyl-2-oxo-1,2-dihydropyridin-3-yl)methyl)-6-(2-ethoxy-4-((4-ethylpiperazin-1-yl)sulfonyl)phenyl)-1H-indazole-4-carboxamide [Compound C-14]", "IC50": "< 300"}, {"molecule": "Cc1cc(C)c(CNC(=O)c2cc(-c3ccc(CN4CCOCC4)cc3)nc3c2cnn3C2CCCC2)c(=O)[nH]1", "note": "[Compound A-1, 1-cyclopentyl-N-((4,6-dimethyl-2-oxo-1,2-dihydropyridin-3-yl)methyl)-6-(4-(morpholinomethyl)phenyl)-1H-pyrazolo[3,4-b]pyridine-4-carboxamide]", "IC50": "< 300"}, {"molecule": "Cc1cc(C)c(CNC(=O)c2cc(-c3cccc(CN(C)C)c3)nc3c2cnn3C(C)C)c(=O)[nH]1", "note": "[Compound A-3, N-((4,6-dimethyl-2-oxo-1,2-dihydropyridin-3-yl)methyl)-6-(3-((dimethylamino)methyl)phenyl)-1-isopropyl-1H-pyrazolo[3,4-b]pyridine-4-carboxamide]", "IC50": "300 to 1000"}, {"molecule": "Cc1cc(C)c(CNC(=O)c2cc(-c3cnc(N)nc3)nc3c2cnn3C(C)C)c(=O)[nH]1", "note": "[Compound A-4, 6-(2-aminopyrimidin-5-yl)-N-((4,6-dimethyl-2-oxo-1,2-dihydropyridin-3-yl)methyl)-1-isopropyl-1H-pyrazolo[3,4-b]pyridine-4-carboxamide]", "IC50": "300 to 1000"}, {"molecule": "Cc1cc(C)c(CNC(=O)c2cc(-c3ccc(N4CCN(C(=O)OC(C)(C)C)CC4)nc3)nc3c2cnn3C(C)C)c(=O)[nH]1", "note": "[Compound A-6, tert-butyl 4-(5-(4-(((4,6-dimethyl-2-oxo-1,2-dihydropyridin-3-yl)methyl)carbamoyl)-1-isopropyl-1H-pyrazolo[3,4-b]pyridin-6-yl)pyridin-2-yl)piperazine-1-carboxylate]", "IC50": "300 to 1000"}, {"molecule": "Cc1cc(C)c(CNC(=O)c2cc(-c3ccc(N4CCNCC4)cc3)nc3c2cnn3C(C)C)c(=O)[nH]1", "note": "[Compound A-7, N-((4,6-dimethyl-2-oxo-1,2-dihydropyridin-3-yl)methyl)-1-isopropyl-6-(4-(piperazin-1-yl)phenyl)-1H-pyrazolo[3,4-b]pyridine-4-carboxamide]", "IC50": "< 300"}, {"molecule": "Cc1cc(C)c(CNC(=O)c2cc(-c3ccc(N4CCNCC4)nc3)nc3c2cnn3C(C)C)c(=O)[nH]1", "note": "[Compound A-10, N-((4,6-dimethyl-2-oxo-1,2-dihydropyridin-3-yl)methyl)-1-isopropyl-6-(6-(piperazin-1-yl)pyridin-3-yl)-1H-pyrazolo[3,4-b]pyridine-4-carboxamide]", "IC50": "< 300"}, {"molecule": "Cc1cc(C)c(CNC(=O)c2cc(-c3cccc(C(=O)NCCCN(C)C)c3)nc3c2cnn3C(C)C)c(=O)[nH]1", "note": "[Compound A-13, N-((4,6-dimethyl-2-oxo-1,2-dihydropyridin-3-yl)methyl)-6-(3-((3-(dimethylamino)propyl)carbamoyl)phenyl)-1-isopropyl-1H-pyrazolo[3,4-b]pyridine-4-carboxamide]", "IC50": "< 300"}, {"molecule": "Cc1cc(C)c(CNC(=O)c2cc(-c3ccc(CN)cc3)nc3c2cnn3C(C)C)c(=O)[nH]1", "note": "[Compound A-14, 6-(4-(aminomethyl)phenyl)-N-((4,6-dimethyl-2-oxo-1,2-dihydropyridin-3-yl)methyl)-1-isopropyl-1H-pyrazolo[3,4-b]pyridine-4-carboxamide]", "IC50": "< 300"}, {"molecule": "Cc1cc(C)c(CNC(=O)c2cc(-c3ccc(CN(C)CCCN(C)C)cc3)nc3c2cnn3C(C)C)c(=O)[nH]1", "note": "[Compound A-15, N-((4,6-dimethyl-2-oxo-1,2-dihydropyridin-3-yl)methyl)-6-(4-(((3-(dimethylamino)propyl)(methyl)amino)methyl)phenyl)-1-isopropyl-1H-pyrazolo[3,4-b]pyridine-4-carboxamide]", "IC50": "< 300"}, {"molecule": "Cc1cc(C)c(CNC(=O)c2cc(-c3ccc(CN4CCOCC4)cc3)nc3c2c(Br)nn3C(C)C)c(=O)[nH]1", "note": "[Compound A-17, 3-bromo-N-((4,6-dimethyl-2-oxo-1,2-dihydropyridin-3-yl)methyl)-1-isopropyl-6-(4-(morpholinomethyl)phenyl)-1H-pyrazolo[3,4-b]pyridine-4-carboxamide]", "IC50": "< 300"}, {"molecule": "Cc1cc(C)c(CNC(=O)c2cc(-c3ccc(C(=O)NCCN(C)C)cc3)nc3c2cnn3C(C)C)c(=O)[nH]1", "note": "[Compound A-18]", "IC50": "< 300"}, {"molecule": "Cc1cc(C)c(CNC(=O)c2cc(-c3ccc(CN(C)CCN4CCCC4)cc3)nc3c2cnn3C(C)C)c(=O)[nH]1", "note": "[Compound A-21]", "IC50": "300 to 1000"}, {"molecule": "Cc1cc(C)c(CNC(=O)c2cc(-c3ccc(CN(C)C)cc3)nc3c2cnn3C(C)C)c(=O)[nH]1", "note": "[Compound A-22]", "IC50": "300 to 1000"}, {"molecule": "Cc1cc(C)c(CNC(=O)c2cc(-c3cccc(CNCCN)c3)nc3c2cnn3C(C)C)c(=O)[nH]1", "note": "[Compound A-26]", "IC50": "300 to 1000"}, {"molecule": "Cc1cc(C)c(CNC(=O)c2cc(-c3ccnc(N4CCN(C(=O)OC(C)(C)C)CC4)c3)nc3c2cnn3C(C)C)c(=O)[nH]1", "note": "[Compound A-27]", "IC50": "300 to 1000"}, {"molecule": "Cc1cc(C)c(CNC(=O)c2cc(-c3cccc(CN)c3)nc3c2cnn3C(C)C)c(=O)[nH]1", "note": "[Compound A-32]", "IC50": "300 to 1000"}, {"molecule": "Cc1cc(C)c(CNC(=O)c2cc(-c3ccc(CN(C)CCN)cc3)nc3c2cnn3C(C)C)c(=O)[nH]1", "note": "[Compound A-33]", "IC50": "300 to 1000"}, {"molecule": "Cc1cc(C)c(CNC(=O)c2cc(-c3cccc(CN(C)CCN)c3)nc3c2cnn3C(C)C)c(=O)[nH]1", "note": "[Compound A-34]", "IC50": "300 to 1000"}, {"molecule": "Cc1cc(C)c(CNC(=O)c2cc(-c3ccnc(N4CCNCC4)c3)nc3c2cnn3C(C)C)c(=O)[nH]1", "note": "[Compound A-37]", "IC50": "300 to 1000"}, {"molecule": "Cc1cc(C)c(CNC(=O)c2cc(-c3cccc(CN(C)CCN4CCCC4)c3)cc3c2cnn3C(C)C)c(=O)[nH]1", "note": "[Compound A-41]", "IC50": "300 to 1000"}, {"molecule": "Cc1cc(CN(C)C)c(CNC(=O)c2cc(-c3ccc(CN4CCOCC4)cc3)nc3c2cnn3C(C)C)c(=O)[nH]1", "note": "[Compound A-43]", "IC50": "300 to 1000"}, {"molecule": "Cc1cc(C)c(CNC(=O)c2cc(-c3ccc(N4CCN(C(=O)OC(C)(C)C)CC4)nc3)nc3c2cnn3C(C)C)c(=O)[nH]1", "note": "[Compound A-44]", "IC50": "300 to 1000"}, {"molecule": "Cc1cc(C)c(CNC(=O)c2c(Cl)c(-c3ccc4c(c3)OCCO4)cc3c2cnn3C(C)C)c(=O)[nH]1", "note": "[Compound A-47]", "IC50": "300 to 1000"}, {"molecule": "Cc1cc(C)c(CNC(=O)c2cc(-c3cnn(C)c3)nc3c2cnn3C(C)C)c(=O)[nH]1", "note": "[Compound A-48]", "IC50": "1000 to 3000"}, {"molecule": "Cc1cc(C)c(CNC(=O)c2cc(-c3cn[nH]c3)nc3c2cnn3C(C)C)c(=O)[nH]1", "note": "[Compound A-49]", "IC50": "1000 to 3000"}, {"molecule": "Cc1cc(C)c(CNC(=O)c2cc(-c3ccc(N)nc3)nc3c2cnn3C(C)C)c(=O)[nH]1", "note": "[Compound A-50]", "IC50": "1000 to 3000"}, {"molecule": "Cc1cc(C)c(CNC(=O)c2cc(-c3ccc(N4CCN(C(=O)OC(C)(C)C)CC4)cc3)nc3c2cnn3C(C)C)c(=O)[nH]1", "note": "[Compound A-51]", "IC50": "1000 to 3000"}, {"molecule": "Cc1cc(C)c(CNC(=O)c2cc(-c3ccc(C(=O)O)cc3)nc3c2cnn3C(C)C)c(=O)[nH]1", "note": "[Compound A-53]", "IC50": "1000 to 3000"}, {"molecule": "Cc1cc(C)c(CNC(=O)c2cc(-c3cccc(CN4CCOCC4)c3)nc3c2cnn3C(C)C)c(=O)[nH]1", "note": "[Compound A-54]", "IC50": "1000 to 3000"}, {"molecule": "CNCCN(C)Cc1cccc(-c2cc(C(=O)NCc3c(C)cc(C)[nH]c3=O)c3c(n2)N(C(C)C)NC3)c1", "note": "[Compound A-58]", "IC50": "1000 to 3000"}]}]}
